The test system of one data set is MES assay. The note with it: Barton et al. 2001; cited from earlier work.
Data set [1] has as its system tonic hindlimb seizure following corneal stimulation in CF-1 mice. Nature of the data set: Mouse maximal electroshock (MES) assay, 60 Hz 50 mA corneal stimulation. The class given is in vivo. As for the experimental part: The interaction of Compound A with other ASMs was evaluated after oral dosing in the mouse maximal electroshock (MES) assay to determine whether some combinations were favorable or unfavorable. Efficacy was quantified by calculating the fraction of animals with a tonic hindlimb seizure following corneal stimulation. Compound Preparation: Compound A was initially solubilized in DMSO. This solution was then added into a 0.5% methyl cellulose solution to create a more even and less aggregated compound suspension. Serial dilutions were prepared from the tube with the highest concentration of Compound A and the compound suspensions were further vortexed prior to animal dosing. The final concentration of DMSO was 5%, an amount with no apparent toxicity or neuroprotection in the MES assay. […] Animals: Adult male CF-1 albino mice (25-35 g) purchased from Harlan-Envigo were used. The mice were housed four per cage and had access to filtered water and chow ad libidum, throughout the experiment. MES Assay: Compounds were administered orally by gavage before testing unless indicated otherwise. During MES testing, a 60-Hz alternating current (50 mA) was delivered for 0.2 seconds through corneal electrodes to the mice. A drop of 0.5% Alcaine solution was placed on the eye prior to current delivery. The electrodes were subsequently placed gently onto the eyes of the animal and the electrical shock was initiated by triggering through a foot-pedal activator. The animals were restrained by hand and gently released as the shock was delivered and the seizure commenced. Animals were monitored for hind limb tonic extension as the end point for this test. Statistical analysis: All statistics were calculated using Prism version 7 software (Graphpad Software). The method used for each experiment is indicated in the results section. Concentration-response curves were calculated as best fits to the equation […] where X was the log of plasma concentration. Unless indicated otherwise, bottom was constrained to be 0. Top was constrained to be the value determined experimentally by vehicle control measurements. Compound A Dose Response: […]
For orientation: In the maximal electroshock model the usual endpoint is tonic extension of the hind limbs.

For data set [2], the system named is 6 Hz psychomotor seizures in CF-1 mice. Nature of the data set: Mouse 6 Hz psychomotor seizure assay (34 milliampere, 3 s). The note with it: for Fraction Seizing: Levetiracetam 300 mg/kg IP 1 h alone. The class given is in vivo. On the procedure: It was evaluated whether the combination of both compounds is favorable or unfavorable for efficacy by dosing Compound A and Levetiracetam alone and in combination, each at a dose that produces sub-maximal efficacy on its own. […] Plasma and brain samples were analyzed to gain an understanding of how the combination of Compound A and Levetiracetam may affect pharmacokinetics and pharmacodynamics. […] 6 Hz Psychomotor Seizure Assay: […] The animal was then securely restrained and a pair of electrodes was applied to the eyes (Electro Convulsive Therapy Unit 57800, Ugo Basile). […] Data Processing and Analysis: Statistical data analysis was performed using GraphPad Prism (version 8.2.1). Dose-response data was analyzed using a Kruskal-Wallis test, followed by Dunn's multiple comparisons. […] Dose- and concentration-response curves were generated using the Hill Langmuir equation: […]

A short description of data set [3]: Plasma and brain concentrations in 6 Hz studies (LC-MS/MS). The class given is in vivo, mouse. Conditions: intraperitoneal. As for the experimental part:
Sample Collection and Preparation: Mice were anesthetized by isoflurane inhalation (TECH-018) until they reached a surgical plane of anesthesia. Then a syringe (1 mL syringe with a 22 gauge needle) was inserted under the sternum into the heart (TECH-031). Approximately 0.5 mL of blood was collected, deposited into a K2EDTA tube, and stored on ice. Animals were then euthanized by cervical dislocation (TECH-018). Brains were removed, placed into a pre-weighed vial, and snap frozen on dry ice. At the end of the sample collection, blood was centrifuged at 4000 rpm for 10 minutes at 4° C., and the plasma pipetted into a labeled tube. All samples were stored in a −80° C. freezer until bioanalysis (8 days after sample collection for Studies 3A and 3B; 20 days after sample collection for Study 3C).
Plasma and Tissue Sample Analysis: Bead mill polypropylene tubes containing weighed brain tissues were thawed at room temperature and 3 mL of homogenization solvent (water:acetonitrile (1:1, v:v)) was added. The tubes were placed in the Bead Mill Homogenizer (Bead Ruptor Elite Model, Omni International) and shaken at a velocity of 3.70 m/s for a single cycle lasting 30 seconds. The homogenized tube was centrifuged at 4000 rpm for 20 minutes, the supernatant was transferred to a 1.5 mL Eppendorf tube, and stored frozen at −80° C. until analysis. All samples including plasma and brain homogenate extracts (including calibration and quality control (QC) samples prepared in K2EDTA rat plasma), were extracted by protein precipitation. […] The samples in the 1.5 mL tubes were vortex mixed and then centrifuged for 20 minutes at 13,000 rpm. Fifty microliters of the supernatant was mixed with 150 μL of water/acetonitrile (1:1) in a 96 well plate which was centrifuged post mixing for 20 minutes at 4000 rpm, and was then ready for analysis by liquid chromatography tandem mass spectrometry (LC-MS/MS).
Samples were analyzed by a research-grade LC-MS/MS method as follows: […]

By ED50 is commonly meant the midpoint of the dose-response relation. What is called IC50 is the concentration at which inhibition is half-maximal.

Where two headings read alike, the source gives them in different places.

For the molecule `CC[C@@H](C(N)=O)N1CCCC1=O` [Levetiracetam, reference compound], the ED50 in the data set on MES assay is listed as > 500 mg/kg. Also, the entries for the “fraction of mice without tonic seizures” value in data set [1] (Levetiracetam 120 mg/kg IP 2 h) and in data set [1] (Levetiracetam 150 mg/kg IP 2 h) were 0/6 and 2/8, respectively. Further, in data set [2] (Levetiracetam 300 mg/kg IP 1 h, 34 milliampere 6 Hz), the “average efficacy in previous experiments” value was 35%. Further, the “Fraction Seizing” value in data set [2] (Studies 3B+3C combined) is given as 14/16; in data set [2] (Study 3B), 8/8; in data set [2] (Study 3C) it was 6/8. Moreover, the “animals protected from seizing” value in data set [2] (Study 3C, Levetiracetam 300 mg/kg IP alone) is given as 2/8. Also, the concentration at 1 h in data set [3] (CF-1, mouse, brain, 300 mg/kg, Study 3B, Levetiracetam 300 mg/kg IP 1 h alone, read-out: Brain) was determined as 861 ± 120 µM; in data set [3] (CF-1, mouse, brain, Study 3C, analyte Levetiracetam, 300 mg/kg IP + Compound A 4 mg/kg PO, read-out: Brain) it was 1100 ± 265 µM; in data set [3] (CF-1, mouse, plasma, 300 mg/kg, Study 3B, Levetiracetam 300 mg/kg IP 1 h alone, read-out: Plasma), 1500 ± 320 µM; in data set [3] (mouse, brain, 300 mg/kg, Studies 3B+3C combined, Levetiracetam 300 mg/kg IP 1 h alone, read-out: Brain), 996 µM; in data set [3] (mouse, brain, 300 mg/kg, Study 3B, Levetiracetam 300 mg/kg IP 1 h alone, read-out: Brain), 861 ± 120 µM; in data set [3] (mouse, brain, Studies 3B+3C combined, analyte Levetiracetam, 300 mg/kg IP + Compound A 4 mg/kg PO, read-out: Brain), 1050 µM. Moreover, the concentration at 1 h in data set [3] (mouse, brain, Study 3B, analyte Levetiracetam, 300 mg/kg IP + Compound A 4 mg/kg PO, read-out: Brain) was found to be 1010 µM; in data set [3] (mouse, brain, Study 3C, analyte Levetiracetam, 300 mg/kg IP + Compound A 4 mg/kg PO, read-out: Brain), 1100 µM; in data set [3] (mouse, plasma, 300 mg/kg, Studies 3B+3C combined, Levetiracetam 300 mg/kg IP 1 h alone, read-out: Plasma), 1640 µM; in data set [3] (mouse, plasma, 300 mg/kg, Study 3B, Levetiracetam 300 mg/kg IP 1 h alone, read-out: Plasma) it was 1500 ± 320 µM; in data set [3] (mouse, plasma, Studies 3B+3C combined, analyte Levetiracetam, 300 mg/kg IP + Compound A 4 mg/kg PO, read-out: Plasma), 1730 µM; in data set [3] (mouse, plasma, Study 3B, analyte Levetiracetam, 300 mg/kg IP + Compound A 4 mg/kg PO, read-out: Plasma), 1350 µM. Besides, the concentration at 1 h in data set [3] (mouse, plasma, Study 3C, analyte Levetiracetam, 300 mg/kg IP + Compound A 4 mg/kg PO, read-out: Plasma) stood at 2160 µM.

In the case of `O=C1NC(=O)C(c2ccccc2)(c2ccccc2)N1` [Phenytoin, reference compound], in data set [1] (Phenytoin 2 mg/kg), the “maximum % seizures of fitted curve, reflecting efficacy of Phenytoin alone” value is recorded as 75%. Besides, in data set [1] (Phenytoin 2 mg/kg IP 2 h alone), the “fraction of animals without tonic seizures” value is given as 6/24.

As for `CCCC(CCC)C(=O)O` [Valproic Acid, reference compound], the IC50 in data set [1] (Mus musculus, ip, read-out: IC50 for Valproic Acid (plasma level, inhibition of tonic seizures)) is 1440 µM. Also, the “number of mice without tonic seizures/total” value in data set [1] (Vehicle PO + Valproic Acid 56 mg/kg IP 0.5 h) is 1/7; in data set [1] (Vehicle PO + Valproic Acid 100 mg/kg IP 0.5 h), 5/15; in data set [1] (Vehicle+Valproic Acid at 56 mg/kg as printed, comparator of the 30 mg/kg combination), 0/8. The “decrease of IC50 for Valproic Acid” value in data set [1] (combined with 1 mg/kg Compound A vs alone) worked out at 2.37 fold.

Source of the values: US20220288057A1, “CONJOINT THERAPY FOR TREATING SEIZURE DISORDERS” (XENON PHARMACEUTICALS INC., priority 2021, published 2022).
